Patent publication US20020094522A1, “Means and methods for monitoring non-nucleoside reverse transcriptase inhibitor antiretroviral therapy and guiding therapeutic decisions in the treatment of HIV/AIDS” (priority 2000, published 2002)

Tests used:
[1] = system: Tyr181Cys (Y181C) mutation variant; conditions: Y181C variant selected during nevirapine monotherapy; cited from earlier work
[2] = system: L100I-K103N-RTV; assay: Phenotypic susceptibility assay, L100I-K103N-RTV; assay type: cell-based, HIV-1; conditions: site directed mutant
Protocol: (§1) The resistance test vectors containing a functional luciferase gene cassette were constructed and host cells were transfected with the resistance test vector DNA. The resistant test vectors contained patient-derived reverse transcriptase and protease sequences that were either susceptible or resistant to the antiretroviral agents, such as nucleoside reverse transcriptase inhibitors, non-nucleoside reverse transcriptase inhibitors and protease inhibitors. […] The IC50 values were determined by plotting percent drug inhibition vs. log10 drug concentration.
(§2) Host cells were seeded in 10-cm-diameter dishes and were transfected several days after plating with resistance test vector plasmid DNA and the envelope expression vector. […] HIV capsid protein (p24) levels in the harvested cell culture media were determined by an EIA method as described by the manufacturer (SIAC; Frederick, Md.). […] The inhibitory effect of the drug was determined using the following equation: […]
(§3) The mutations Y188L, L100I and K103N were introduced alone and in combinationn into resistance test vectors using the mega-primer method for site-directed mutagenesis (Sakar and Sommar, Ibid.). […] We determined the pattern of phenotypic susceptibility to the NNRTIs, delavirdine, nevlrapine and efavirenz, in all 6 vectors.

[3] = system: Y188H-RTV (HIV reverse transcriptase Y188H)
From the text: The resistance test vectors containing a functional luciferase gene cassette were constructed and host cells were transfected with the resistance test vector DNA. The resistant test vectors contained patient-derived reverse transcriptase and protease sequences that were either susceptible or resistant to the antiretroviral agents, such as nucleoside reverse transcriptase inhibitors, non-nucleoside reverse transcriptase inhibitors and protease inhibitors. The resistance test vector viral particles produced by transfecting the resistance test vector DNA into host cells, either in the presence or absence of protease inhibitors, were used to infect target host cells grown either in the absence of NRTI or NNRTI or in the presence of increasing concentrations of the drug. The amount of luciferase activity produced in infected target host cells in the presence of drug was compared to the amount of luciferase produced in infected target host cells in the absence of drug. Drug resistance was measured as the amount of drug required to inhibit by 50% the luciferase activity detected in the absence of drug (inhibitory concentration 50%, IC50). The IC50 values were determined by plotting percent drug inhibition vs. log10 drug concentration.
Host cells were seeded in 10-cm-diameter dishes and were transfected several days after plating with resistance test vector plasmid DNA and the envelope expression vector. Transfections were performed using a calcium-phosphate precipitation procedure. The cell culture media containing the DNA precipitate was replaced with fresh medium, from one to 24 hours, after transfection. Cell culture media containing resistance test vector viral particles was harvested one to four days after transfection and was passed through a […] filter before being stored at −80° C. HIV capsid protein (p24) levels in the harvested cell culture media were determined by an EIA method as described by the manufacturer (SIAC; Frederick, Md.). Before infection, target cells (293 and 293/T) were plated in cell culture media. Control infections were performed using cell culture media from mock transfections (no DNA) or transfections containing the resistance test vector plasmid DNA without the envelope expression plasmid. One to three or more days after infection the media was removed and cell lysis buffer (Promega) was added to each well. […] The inhibitory effect of the drug was determined using the following equation: […]
where RLUluc [drug] is the relative light unit of luciferase activity in infected cells in the presence of drug and RLUluc is the Relative Light Unit of luciferase activity in infected cells in the absence of drug. IC50 values were obtained from the sigmoidal curves that were generated from the data by plotting the percent inhibition of luciferase activity vs. the log10 drug concentration.

[4] = system: K103N-Y188L-RTV; assay: Phenotypic susceptibility assay, K103N-Y188L-RTV; assay type: cell-based, HIV-1; conditions: site directed mutant
Protocol: as §1, §2, §3

Cc1ccnc2c1NC(=O)c1cccnc1N2C1CC1 [nevirapine]
reduction in sensitivity [1]: 100 fold
fold loss of susceptibility compared to wild type control RTV [2]: 70 fold
fold loss of susceptibility compared to wild type control RTV [3]: 3.5 fold
fold loss of susceptibility compared to wild type control RTV [4]: greater than 800 fold
